Experimental data published in US20170290820A1, “METHODS AND COMPOSITIONS FOR TREATING BETA-THALASSEMIA AND SICKLE CELL DISEASE” (Academia Sinica, priority 2013, published 2017).
Converted amounts (≈) assume the structure as drawn. “And” between values parts separate entries of the source, which are not always exact repeats. Equal entries are not always repeated. Structures can show the parent of a compound that is named as a salt. Where two headings read alike, the source gives them in different places.

Assays:
γ globin gene = γ globin gene induction by relative quantitative RT-PCR; type: cell-based, human; settings: for γ globin induction (IC50): Table 3, γ globin mRNA induction fold at the compound's IC50, 3 days; for EC (μM) induction of HU IC50 (2.3 fold): concentration inducing γ globin gene expression 2.3-fold, primary human erythroid cells
Experimental: (§1) After 3 days of drug-treatment, the total RNA was extracted by RNA Spin mini kit (Ge-Healthcare) and reverse-transcription was performed by using superscript II (Invitrogen) followed the manufactors instruction. Quantitative PCR was performed on LightCycler with using STBR green master mix followed the manufactors instruction (Roche). The absolute quantitative RT-PCR was calculated by the standard curve with supplying a known copy number of plasmids. The relative quantitative RT-PCR was normalized to the expression levels of the β-actin and compared to the mock control.
To search for new agents, which are capable of inducing the expression of γ globin, a series of naphthalimide derivatives with various substituent(s) on the naphthalene ring and the heterocyclic N-atom (A1-A14, B1-B4, C1-C5, D1, and E1-E3, FIG. 2) were synthesized. These derivatives were subjected to evaluating the γ globin induction abilities in differentiated peripheral blood mononuclear cells (PBMCs). The PBMCs isolated from the peripheral blood of donors were expanded and differentiated for a total of 14 days in a two-phase liquid culture. The resulted primary erythoid cells were then treated with different dosages of naphthalimide derivatives individually for another 3 days. The expression levels of the endogenous γ globin gene were estimated by relative quantitative RT-PCR and the proliferation rates of these cells were examined by AlamarBlue cell viability assay. […]; 2-4.5-folds induction of the γ globin gene expression in the compounds-treated cells (FIG. 3).

[1] = tested on: primary human erythroid cells; experiment: AlamarBlue cell viability / proliferation assay; settings: for IC50: 3 days
[2] = solubility in DMSO and H2O; type: physicochemical; settings: for water-solubility (in words): comparison
ε globin = experiment: absolute quantitative RT-PCR, proportion of ε globin mRNA; type: cell-based; settings: primary human erythroid cells, at IC50, 3 days; mock 0.0%
Experimental: as §1
(§2) To evaluate the specificity of S51021, SS-2394, HU, and NaB in mediating globin genes activation, the amounts of individual P3-liked globin mRNAs were measured by absolute quantitative RT-PCR.
(§3) The primary human erythroid cells were treated with HU (145.9 μM), NaB (221.6 μM), S51021 (21.8 μM) or SS2394 (2.3 μM) for 3 days, and the expression levels of each globin mRNA were estimated by absolute quantitative RT-PCR analysis. The proportions of individual 3-like globin chains among the total 3-like globin mRNA are shown. Data are presented as the mean±SEM, N=3.

β globin = experiment: absolute quantitative RT-PCR, proportion of β globin mRNA; type: cell-based; settings: primary human erythroid cells, at IC50, 3 days; mock 88.8%; listed as SS-2394, hydrochloride
Experimental: as §1, §2, §3

δ globin = experiment: absolute quantitative RT-PCR, proportion of δ globin mRNA; type: cell-based; settings: primary human erythroid cells, at IC50, 3 days; mock 3.3%
Experimental: as §1, §2, §3

[3] = stability observed during biological evaluation; type: physicochemical; settings: deaminated or converted into C6-hydroxy derivative
Source text: To optimize the biological activity and reduce the cytotoxicity of SS-2394 by structural modification, the core structure of naphthalimide (I) was modified by alternating the carbonyl function of benzo[de]isoquinoline-1,3(2H)-dione; reducing the carbonyl function to hydroxyl derivatives (II), which can be further converted into dehydroxylated derivatives III and IV (Scheme 1). During biological evaluation of SS-2394, it was observed that the C6-amino function in SS-2394 was unstable and can be deaminated or converted into the corresponding C6-hydroxy derivatives. Therefore, various substituent R to the C6 of benzo[de]isoquinolin ring were introduced. The substituent R can be H, NH2, NHCOCH3, NHR′, NR′2; wherein R′ can be a C1 to C5 alkyl group. The new compounds bear a N,N-dimethylaminoethyl hydrophilic side chain, which can form acid salts with various inorganic acids or organic acids. Thus, the compounds are water soluble compounds and are suitable for biological application.

[4] = DMSO, organic solvent or mixture, read-out: solubility DMSO
[5] = Table 1a, concentration reducing proliferation rate of primary human erythroid cells by 50%
[6] = water, H2O, read-out: solubility H2O
[7] = Table 3, primary human erythroid cells, proliferation reduced by 50%

With `CN(C)CCN1Cc2cccc3cccc(c23)C1=O` [BO-2477, 2-(2-(Dimethylamino)ethyl)-2,3-dihydro-1H-benzo[de]isoquinolin-1-one] the “γ globin-inducing activity, rank among compounds tested” value (γ globin gene; FIG. 8) was “highest γ globin-inducing activity”, the melting point was 253 to 254 °C and the “cytotoxicity IC50 against primary erythroid cells” value ([1]; FIG. 8, Example 2) was “relatively lower cytotoxicity”.

`O=C1c2cccc3cccc(c23)C(=O)N1c1ccccc1` [Compound A1, N-Phenyl-1,8-naphthalimide] showed a solubility [2, 4] of 10 mM (≈ 2730 µg/mL), a melting point of 218 to 220 °C and an IC50 [1, 5] of over 100 µM.

In the case of `O=C1c2cccc3c([N+](=O)[O-])ccc(c23)C(=O)N1c1ccccc1` [Compound A2, N-Phenyl-4-nitro-1,8-naphthalimide], the “γ globin induction (IC50)” value (γ globin gene) is reported as 1.1 fold, the melting point is reported as over 280 °C and the IC50 [1, 5] is reported as 0.3 µM.

With `O=C1c2cccc3c(Cl)ccc(c23)C(=O)N1c1cccc(Cl)c1` [Compound A10, N-(3-Chloro-phenyl)-4-chloro-1,8-naphthalimide] the melting point was 273 to 275 °C and the IC50 [1, 5] was over 100 µM.

`O=C1c2cccc3c(Cl)ccc(c23)C(=O)N1c1ccc(F)c(Br)c1` [Compound A11, N-(3-Bromo-4-fluoro-phenyl)-4-chloro-1,8-naphthalimide] showed a melting point of over 280 °C and an IC50 [1, 5] of over 100 µM.

In the case of `O=C1c2cccc3c(Cl)ccc(c23)C(=O)N1c1ccc(F)cc1` [Compound A12, N-(4-Fluoro-phenyl)-4-chloro-1,8-naphthalimide], the melting point is reported as 274 to 276 °C and the IC50 [1, 5] is reported as over 100 µM.

`O=C1c2cccc3c(Cl)ccc(c23)C(=O)N1c1ccc(Br)cc1` [Compound A13, N-(4-Bromo-phenyl)-4-chloro-1,8-naphthalimide] showed a melting point of over 280 °C and an IC50 [1, 5] of over 100 µM.

`O=C1c2cccc3c(Cl)ccc(c23)C(=O)N1c1ccc(Cl)c(Cl)c1` [Compound A14, N-(3,4-Dichloro-phenyl)-4-chloro-1,8-naphthalimide] showed a melting point of over 280 °C and an IC50 [1, 5] of over 100 µM.

For `CN(C)CCN1C(=O)c2cccc3cccc(c23)C1=O` [Compound B1, N-(2-Dimethylamino-ethyl)-1,8-naphthalimide hydrochloride], the “γ globin induction (IC50)” value (γ globin gene) was 4.1 fold, the “EC (μM) induction of HU IC50 (2.3 fold)” value (γ globin gene) was 4.7 µM and the “water-solubility (in words)” value [2] was “greatly improved water-solubility”. It also gave a solubility [2, 6] of over 100 mM, an IC50 [1, 5] of 10.7 µM and an IC50 [1, 7] of 10.7 µM.

In the case of `CN(C)CCN1C(=O)c2cccc3c([N+](=O)[O-])ccc(c23)C1=O` [Compound B2, N-(2-Dimethylamino-ethyl)-4-nitro-1,8-naphthalimide], the melting point is reported as 131 to 133 °C and the IC50 [1, 5] is reported as 2.6 µM.

In the case of `CN(C)CCN1C(=O)c2cccc3c(Cl)ccc(c23)C1=O` [Compound B4, N-(2-dimethylamino-ethyl)-4-chloro-1,8-naphthalimide hydrochloride], the “γ globin induction (IC50)” value (γ globin gene) is reported as 3.3 fold, the “EC (μM) induction of HU IC50 (2.3 fold)” value (γ globin gene) is reported as 2.2 µM and the “water-solubility (in words)” value [2] is reported as “greatly improved water-solubility”. It also gave a solubility [2, 6] of over 100 mM, an IC50 [1, 5] of 5 µM and an IC50 [1, 7] of 5 µM.

With `CN1C(=O)c2cccc3c([N+](=O)[O-])ccc(c23)C1=O` [Compound C2, N-Methyl-4-nitro-1,8-naphthalimide] the melting point was 209 to 212.5 °C and the IC50 [1, 5] was over 100 µM.

`CCN1C(=O)c2cccc3c([N+](=O)[O-])ccc(c23)C1=O` [Compound C3, N-Ethyl-4-nitro-1,8-naphthalimide] showed a melting point of 191 to 192.5 °C and an IC50 [1, 5] of over 100 µM.

With `CCN1C(=O)c2cccc3c(Cl)ccc(c23)C1=O` [Compound C5, N-Ethyl-4-chloro-1,8-naphthalimide] the melting point was 167 to 170 °C and the IC50 [1, 5] was over 100 µM.

Compound `CCOC(=O)CCCN1C(=O)c2cccc3c([N+](=O)[O-])ccc(c23)C1=O` [Compound D1, N-(Butyric acid ethyl ester)-4-nitro-1,8-naphthalimide] has a melting point of 115 to 116 °C and an IC50 [1, 5] of 6.3 µM.

With `Nc1ccc2c3c(cccc13)C(=O)N(c1ccccc1)C2=O` [Compound E1, N-Phenyl-4-amino-1,8-naphthalimide] the “EC (μM) induction of HU IC50 (2.3 fold)” value (γ globin gene) was 2.9 µM, the solubility [2, 4] was 10 mM (≈ 2880 µg/mL) and the IC50 [1, 5] was 2.2 µM. For the same compound, the IC50 [1, 7] was 0.3 µM.

In the case of `CN(C)CCN1C(=O)c2cccc3c(N)ccc(c23)C1=O` [Compound E2, N-(2-dimethylamino-ethyl)-4-amino-1,8-naphthalimide hydrochloride], the “γ globin induction (IC50)” value (γ globin gene; hydrochloride) is reported as 4.0 fold, the “EC (μM) induction of HU IC50 (2.3 fold)” value (γ globin gene) is reported as 0.8 µM and the “water-solubility (in words)” value ([2]; hydrochloride) is reported as “greatly improved water-solubility”. The “water-solubility (in words)” value ([2]; listed as SS-2394, hydrochloride) was “higher water-solubility than that of the parental compound S51021”, the solubility [2, 6] was over 100 mM and the “ε globin proportion of total β-like globin mRNA” value (ε globin) was 0.5 ± 0.1%. The “β globin proportion of total β-like globin mRNA” value (β globin) was 82.3% and 82.3 ± 1.1%, the “δ globin proportion of total β-like globin mRNA” value (δ globin) was 5.5 ± 0.4% and the “stability of the C6-amino function” value [3] was “unstable”. It also gave an IC50 [1, 5] of 2.3 µM.

For `CN(C)CCCN1C(=O)c2cccc3c(N)ccc(c23)C1=O` [Compound E3, N-(3-dimethylamino-propyl)-4-amino-1,8-naphthalimide hydrochloride], the “γ globin induction (IC50)” value (γ globin gene) was 2.7 fold, the “EC (μM) induction of HU IC50 (2.3 fold)” value (γ globin gene) was 7.4 µM and the “water-solubility (in words)” value [2] was “greatly improved water-solubility”. For the same compound, the solubility [2, 6] was over 100 mM, the IC50 [1, 5] was 11.2 µM and the IC50 [1, 7] was 11.2 µM.

With `C[S+]([O-])c1ccc(-c2nc(-c3ccncc3)c(-c3ccc(F)cc3)[nH]2)cc1` (centres unmarked) [SB203580, reference compound] the “effect of pre-treatment on γ globin elevation triggered by S51021 and SS-2394” value (γ globin gene; data not shown) was “efficiently abolished”.
